From US9994915B2, “miR-211 expression and related pathways in human melanoma” (Sanford-Burnham Medical Research Institute, priority 2010, dated 2018)

How the values were obtained:
Format in all cases: cell-based, human
A375 melanoma cells = test: cell proliferation (cell counts) of A375 lines; conditions: A375/211
Protocol: (§1) The over-expression of KCNMA1 is often associated with both cell proliferation and cell migration/invasion in various cancers. Therefore, the effects of depletion of miR-211 and associated over-expression of KCNMA1 on these process in melanoma cells were determined. Proliferation rates of melanoma cell lines stably transfected with the miR-211 expression cassette were compared with those of untransfected melanoma cells and cell lines transfected with the empty expression vector (FIG. 8A), respectively.
(§2) Assays were performed using WM1552C, WM1552C/VO, WM1552C/211(400), WM1552C/211(800), A375, A375/VO, and A375/211 cell lines. Cells were grown in log phase, trypsinized, counted using an automated cell counter (Cellometer®, Nexcelom Bioscience), and then seeded into 75 cm^2 flasks at 5×10^5 cells per flask (in triplicate). Media was changed after 6 hours, and cells were further fed every 48 hours (Complete Tu Media). At days 4, 10, 15, and 21, cells were trypsinized, counted (Cellometer®, Nexcelom Bioscience), and then reseeded. Each assay was performed in duplicate for all cell lines.

KCNMA1 transcript = test: qRT-PCR of KCNMA1 transcript in WM1552C lines; conditions: WM1552C/211(400)
Protocol: Expression levels of all statistically significant and differentially expressed mRNAs and miRNAs were confirmed by qRT-PCR using TaqMan® expression kits (Applied Biosystems) using multiple technical and biological replicates. GAPDH was used as the internal reference probe for normalization of expression values of mRNA, and RNU48 was used for normalization of miRNA. RNA analysis by Northern blots used 20 μg of total RNA concentrated from each sample (melanoma cell lines and melanocytes), separated on 15% urea denaturing polyacrylamide gels by electrophoresis. Gels were electroblotted to nylon membranes, cross-linked by UV, prehybridized in ULTRAhyb®-Oligo (Ambion) for 30 minutes at 42° C., and hybridized with 5′-biotinylated anti-miRNA DNA oligonucleotides (100 nM each) at 42° C. overnight, washed, and detected by chemiluminescence (Brightstar® detection kit, Ambion). Anti-U6 probes were used as a reference control (at 10 pM).
qRT-PCR analyses were then run to determine whether the induced expression of miR-211 in melanoma cells could reduce KCNMA1 transcript levels. […] To further confirm our observations, we measured the correlation between miR-211 expression and KCNMA1 protein levels (FIG. 6D). […] Melanocytes were transfected with anti-miR-211 inhibitors (Exiqon) and the protein expression of KCNMA1 was measured.

A375 cells [1] = test: abundance of mitochondria, MitoTracker; conditions: miR-211-expressing cells
PDK4 = test: proteomics (mass spectrometric) data, PDK4 expression; conditions: miR-211-expressing melanoma cells
Protocol: Deep-sequencing (RNA-seq) and proteomics (mass spectrometry) data from two melanoma cell lines A375 and WM1552C, each expressing miR-211 or the empty vector, were generated. […] Energy consumption was investigated in miR-211-expressing cells. Using the Seahorse XF96 Analyzer, it was determined that miR-211-expressing melanoma cells (A375) consumed nearly double the amount of oxygen as control cells expressing the empty vector (FIG. 35). […] Finally, we measured the level of hypoxia-inducible factor 1 alpha (HIF-1α) in miR-211-expressing cells. HIF-1α expression was reduced by miR-211 expression which is an indication of cellular respiration changes (FIG. 37).
(§3) This target was further confirmed by the cleavage assay, and the downregulation was verified by western blot analysis (FIG. 38). Similarly, peroxisome proliferator-activated receptor-γ coactivator (PGC1α) was identified by the proteomics data and validated by western blot analysis. PGC1α is a low express gene in A375 cells, but it is been targeted by miR-211 according to target cleavage and qPCR results. Finally, insulin-like growth factor-binding protein 5 (IGFBP5) was identified through the RNA-seq data and results are illustrated in FIG. 34.

IGFBP5 mRNA = test: Next Gen sequencing of IGFBP5 mRNA in WM1552C cells
Protocol: To extend the findings of the MITF knock-down study and to further establish IGFBP5 as a miR-211 target, the effect of miR-211 expression on IGFBP5 mRNA was determined. WM1552C cells were transfected with either an empty vector or the vector encoding and expressing miR-211. Additionally, untransfected WM1552C cells were treated with 5-Aza-2′deoxycytidine (“5-Aza”) to investigate whether miR-211 down-regulates IGFBP5 mRNA production through a genomic methylation mechanism.

WM1552C melanoma cells = test: cell proliferation (cell counts) of WM1552C lines
Protocol: as §1, §2

WM1552C cells = test: cell counts in hypoxic chamber (2% O2), WM1552C/211; conditions: WM1552C/211 cells, hypoxic chamber 2% O2 (parental WM1552C about 64%)
Source text: To test under actual hypoxic conditions, both cell lines were placed into a hypoxic chamber containing 2% O2 prior to determination of cell counts. […] As in the DFO-simulated hypoxic condition assay, the presence of miR-211 caused the effect to be greatly exacerbated, reducing survival to about 29%.

PDK4 protein = test: western blot of PDK4 protein; conditions: miR-211-expressing melanoma cells, gel (FIG. 38)
Source text: as §3

A375 cells [2] = test: lipid species (PI acyl chains) by mass spectrometry in A375 vs A375/211; conditions: A375/211 vs A375 cells
Source text: To determine the effect of miR-211 expression in A375 cells on the production of lipid species, as an indicator of metabolic change, fatty acids were isolated and quantitated in A375 cells and A375/211 by mass spectrometry. […] This confirms that miR-211 is capable of altering the metabolic profile of these metabolic cells.

Substance: miR-211: pre-miR-211 sequence stably expressed from plasmid pcDNA4/miR-211 in melanoma cells; mature sequence UUCCCUUUGUCAUCCUUCGCCU (SEQ ID NO: 15) (listed as Homo sapiens)
- cell proliferation compared to untransfected A375 or A375/VO (A375 melanoma cells): grew more slowly
- KCNMA1 transcript expression vs wild type WM1552C (KCNMA1 transcript): down-regulates
- number of mitochondria vs empty vector-expressing cells (A375 cells [1]): higher number of mitochondria
- PDK4 expression (PDK4): heavily downregulated
- IGFBP5 mRNA expression (IGFBP5 mRNA): almost to undetectably levels
- decrease in cell counts compared to WM1552C (WM1552C melanoma cells; WM1552C/211(400), after a 21-day period): greater than 30%
- decrease in cell proliferation compared to WM1552C (WM1552C melanoma cells; WM1552C/211(800), after a 21-day period): even greater decrease
- decrease in growth over the invasion assay period (WM1552C melanoma cells; WM1552C/211 cells, 48 hours): 8-10%
- survival vs normoxic condition cells (WM1552C cells): 34%
- PDK4 protein expression (PDK4 protein): virtually undetectable
- content of 18:0-18:2 acyl chains (A375 cells [2]): large increase
- content of 18:0-20:4 acyl chains (A375 cells [2]): large decrease
